One assay deals with Escherichia coli. Description: Antibacterial activity against Escherichia coli ATCC 25922 at 62.5 uM after 24 hrs. The format is functional, organism-based.
The next assay relates to MCF7. Description: Cytotoxicity against human MCF7 cells assessed as reduction in cell viability after 48 hrs by MTT assay. The format is functional, cell-based. Particulars: MCF7, 48 h. On the technique in general: Formazan colour is commonly taken as a measure of viable cells.
A short description of assay [1]: Antioxidant activity assessed as DPPH free radical scavenging activity at 100 uM after 30 mins in dark by spectrophotometric method relative to control. Format: functional.
For the next assay, the system named is Staphylococcus aureus. Description: Antibacterial activity against Staphylococcus aureus ATCC 25923 at 62.5 uM after 24 hrs. The format is functional, organism-based.
The test system of the next assay is MIA PaCa-2. Kind of assay: Cytotoxicity against human MIAPaCa2 cells assessed as reduction in cell viability after 48 hrs by MTT assay. The note with it: MIA PaCa-2, 48 h. The format is functional, cell-based.
Another assay concerns Pseudomonas aeruginosa. Description: Antibacterial activity against Pseudomonas aeruginosa ATCC 27853 at 62.5 uM after 24 hrs. The format is functional, organism-based.
Assay [2] can be described thus: Antioxidant activity assessed as DPPH free radical scavenging activity at 12.5 uM after 30 mins in dark by spectrophotometric method relative to control. Format: functional.
A short description of assay [3]: Antioxidant activity assessed as DPPH free radical scavenging activity at 50 uM after 30 mins in dark by spectrophotometric method relative to control. Format: functional.
The next assay has as its system PC-3. Kind of assay: Cytotoxicity against human PC3 cells assessed as reduction in cell viability after 48 hrs by MTT assay. The format is functional, cell-based. The note with it: PC-3, 48 h.
Assay [4] can be described thus: Antioxidant activity assessed as DPPH free radical scavenging activity after 30 mins in dark by spectrophotometric method. The format is functional. On the technique in general: The DPPH test is a chemical assay of radical scavenging.
Assay [5] can be described thus: Antioxidant activity assessed as DPPH free radical scavenging activity at 6.25 uM after 30 mins in dark by spectrophotometric method relative to control. Format: functional.
The nature of assay [6]: Antioxidant activity assessed as DPPH free radical scavenging activity at 25 uM after 30 mins in dark by spectrophotometric method relative to control. Format: functional.
A further assay concerns T47D. Kind of assay: Cytotoxicity against human T47D cells. The format is functional, cell-based.

Experimental findings from ChEMBL document CHEMBL4118177, “Valproic acid induces three novel cytotoxic secondary metabolites in Diaporthe sp., an endophytic fungus from Datura inoxia Mill” (Bioorg Med Chem Lett, 2018) are described below.

The source made the active and inactive calls. The calls are words filed in the database; no cut-off is given here.

One may read the IC50 as the concentration that inhibits the measured activity by half. One may read the EC50 as the concentration giving half of the maximal effect. `CCC[C@@H]1C[C@H](O)[C@@H](OC)/C=C/C=C\C(=O)O1`: the result with Escherichia coli, in the assay on Staphylococcus aureus and with Pseudomonas aeruginosa was inactive. Also, the IC50 in the assay with MCF7 is greater than 50 µM; in the assay on MIA PaCa-2, 34 µM; in the assay on PC-3, 22 µM. For the same compound, the Activity in assay [1] was found to be 10%; in assay [2] it was 4.04%; in assay [3], 8.13%; in [5], 2.37%; in assay [6], 7.12%. In [4], the EC50 was greater than 100 µM.
Take `O=C1O[C@H]([C@@H](O)CO)C(O)=C1O` [ASCORBIC ACID]: the Activity amounted to 87.8% in [1]; 60.9% in [2]; 85.8% in assay [3]; 52.7% in assay [5]; 76.5% in assay [6]. Besides, in assay [4], the EC50 turned out to be 6.2 µM.
On to `O=C(O)c1cn(C2CC2)c2cc(N3CCNCC3)c(F)cc2c1=O`, for which the result in the assay on Escherichia coli, with Staphylococcus aureus and with Pseudomonas aeruginosa was Active.
`CCC[C@H]1OC(=O)/C=C\C=C\[C@H](O)[C@@H](O)[C@@H]1[C@H](C)COC(=O)c1ccc(O)cc1`: the outcome in the assay on Escherichia coli, in the assay on Staphylococcus aureus and with Pseudomonas aeruginosa was inactive. The values for the IC50 in the assay with MCF7, with MIA PaCa-2 and in the assay with PC-3 were 30 µM, 20 µM and 14 µM, respectively. Also, the Activity in [1] stood at 63%; in [2] it was 26.8%; in assay [3] it was 59%; in assay [5] it was 22.1%; in [6] it was 48.3%. In addition, the EC50 in assay [4] came out at 27.5 µM.
`CC(=O)O[C@H]1C(=O)[C@@]2(C)[C@H]([C@H](OC(=O)c3ccccc3)[C@]3(O)C[C@H](OC(=O)[C@H](O)[C@@H](NC(=O)c4ccccc4)c4ccccc4)C(C)=C1C3(C)C)[C@]1(OC(C)=O)CO[C@@H]1C[C@@H]2O` [PACLITAXEL]: the results for the IC50 in the assay on MIA PaCa-2 and with PC-3 were 0.006 µM and 0.007 µM, respectively.
With `CCC/C=C/[C@@H]1OC(=O)c2cc(O)cc(O)c2[C@@H]1O`, the result with Escherichia coli, in the assay with Staphylococcus aureus and in the assay with Pseudomonas aeruginosa was inactive. Moreover, the 50% inhibitory concentration (IC50) with MCF7, in the assay with MIA PaCa-2 and with PC-3 was greater than 50 µM each time. Moreover, the Activity in assay [1] is 61%; in assay [2], 55%; in assay [3], 59%; in assay [5] it was 34.3%; in assay [6] it was 58%. Further, the EC50 in assay [4] turned out to be 10.3 µM.
As to `CCC[C@@H]1C[C@H](O)[C@@H](O)/C=C/C=C\C(=O)O1`, the IC50 with T47D turned out to be 7 µM; with MCF7 it was 29 µM; in the assay with MIA PaCa-2 it was 32 µM; with PC-3, 18 µM. The outcome with Escherichia coli, in the assay on Staphylococcus aureus and in the assay on Pseudomonas aeruginosa was inactive. In addition, the Activity in assay [1] is 39.1%; in assay [2], 36.6%; in [3], 38.5%; in assay [5] it was 35%; in [6], 37.4%. Besides, the EC50 in assay [4] is greater than 100 µM.
